Data as given in patent US10766917B2, “Nucleotides for the treatment of cancer” (IDENIX PHARMACEUTICALS LLC, priority 2015, dated 2020).
Read-outs that look alike come from different tables or passages of the source.

Key:
Type in all cases: cell-based
HuH-1 cells = assay: In vitro inhibition of HuH-1, MTT assay; conditions: read-out: HuH-1: relative IC50
Protocol: HuH-1 cells were purchased from JCRB and tested with the following method:
Cells are suspended at a specific density in a specific culture medium (see table in 2.Cell lines).
Then, 100 μl of cell suspension are plated per well in 96-well plates.
Compounds or negative controls (DMSO) are added to the cells (100 μl of a compound solution in its specific medium with a final concentration of 0.15% DMSO).
Each compound concentration is tested in duplicate (6 concentrations per compound).
Cells are incubated at 37° C. for 72 h without treating again.
SDS is added to control wells (final concentration of 1%) and kept for 15 min at 37° C. SDS 1% represents the positive control of proliferation inhibition.
Cell supernatant is removed and 100 μl of a MTT (3-[4.5-dimethylthiazol-2-yl]-2.5-diphenyltetrazolium bromide) solution in fresh medium are added per well (MTT final concentration of 0.5 mg/ml) and incubated for 4 h at 37° C.
MTT reaction is stopped and homogenized by adding 100 μl/well of SDS 10%, 0.01M HCl and incubated for 2 h at 37° C.
Absorbance is measured at 570 nm.

A498 = assay: In vitro inhibition, CellTiter-Glo (CTG) assay; conditions: Homo sapiens
Protocol: (§1) Cells were grown in RPMI-1640 supplemented with L-Glutamine and 10% FBS of the following cell lines:
(§2) CCRF-CEM; HL-60; KG-1; CFPAC-1; MiaPACA-2; BxPC-3; HepG2; MDA-MB-231; HCT-116; A498; and NCI-H69
(§3) 18, 96 well plates of each cell line were seeded with the optimized number of cells per well in a total volume of 50 μper well. The plates were left overnight. Plate wells were seeded with 100 pt media for media control. The following day, cells were exposed to test compounds as described below. At the same time as drug exposure, a CTG assay was conducted on the 18th plate for the 0 hr count.
(§4) The compounds were added to cells and medium already on the plate to give desired final concentrations. 50 μL media were added to cell control wells, and 50 μL of mix added to vehicle control wells. 10 μM Doxorubicin was added to appropriate wells as control. Cells exposed to test compound were incubated at 37° C. for 72 hr followed by a CTG assay.
(§5) At the end of the 72 hr exposure period, plates were removed for a CellTiter-Glo (CTG) assay from a 37° C., 5% CO2 incubator and placed on the bench at room temperature for 30 mins. 100 μL of CellTiter-Glo reagent was added and mixed for 2 mins, followed by a further 10 min incubation at room temperature. Luminescence was recorded using Synergy 4.0.

BxPC-3 = assay: In vitro inhibition, CellTiter-Glo (CTG) assay; conditions: Homo sapiens
Protocol: as §1, §2, §3, §4, §5

CFPAC-1 = assay: In vitro inhibition, CellTiter-Glo (CTG) assay; conditions: Homo sapiens
Protocol: as §1, §2, §3, §4, §5

HCT-116 = assay: In vitro inhibition, CellTiter-Glo (CTG) assay; conditions: Homo sapiens
Protocol: as §1, §2, §3, §4, §5

HepG2 = assay: In vitro inhibition, CellTiter-Glo (CTG) assay; conditions: Homo sapiens
Protocol: as §1, §2, §3, §4, §5

MDA-MB-231 = assay: In vitro inhibition, CellTiter-Glo (CTG) assay; conditions: Homo sapiens, MDA-MB-231, 72 hr exposure
Protocol: as §1, §2, §3, §4, §5

MiaPACA-2 = assay: In vitro inhibition, CellTiter-Glo (CTG) assay; conditions: Homo sapiens
Protocol: as §1, §2, §3, §4, §5

NCI-H69 = assay: In vitro inhibition, CellTiter-Glo (CTG) assay; conditions: Homo sapiens
Protocol: as §1, §2, §3, §4, §5

[1] = MIA PaCa-2, 72 h, 72 hr exposure

IC50 (BxPC-3; BXPC-3, 72 h, 72 hr exposure) [µM]	IC50 (HCT-116; HCT-116, 72 h, 72 hr exposure) [µM]	IC50 (HepG2; HepG2, 72 h, 72 hr exposure) [µM]	IC50 (MDA-MB-231) [µM]	IC50 (MiaPACA-2; [1]) [µM]	IC50 (NCI-H69; NCI-H69, 72 h, 72 hr exposure) [µM]	SMILES	IC50 (A498; A498, 72 h, 72 hr exposure) [µM]	IC50 (CFPAC-1; CFPAC-1, 72 h, 72 hr exposure) [µM]	also measured
–	–	–	–	–	–	CCOC(=O)[C@H](C)CCO[P@]1(=O)OC[C@H]2O[C@@H](n3ccc(N)nc3=O)C(F)(F)[C@@H]2O1 (single isomer, unassigned) [Compound 123 Diastereoisomer 2]	–	–	IC50 (HuH-1 cells; Homo sapiens, HuH-1, 72 h): < 0.3 µM
–	–	–	–	–	–	CCOC(=O)[C@H](C)CCO[P@@]1(=O)OC[C@H]2O[C@@H](n3ccc(N)nc3=O)C(F)(F)[C@@H]2O1 (single isomer, unassigned; diastereoisomer 1) [Compound 123 Diastereoisomer 1]	–	–	IC50 (HuH-1 cells; 72 h): < 0.3 µM
–	–	–	–	–	–	CC(C)OC(=O)[C@H](C)CCO[P@@]1(=O)OC[C@H]2O[C@@H](n3ccc(N)nc3=O)C(F)(F)[C@@H]2O1 (single isomer, unassigned; diastereoisomer 2) [Compound 120 Diastereoisomer 2]	–	–	IC50 (HuH-1 cells; 72 h): < 0.3 µM
< 1	1 to 10	< 1	10 to 100	< 1	1 to 10	Nc1ccn([C@@H]2O[C@@H]3COP(=O)(O)O[C@H]3C2(F)F)c(=O)n1 [Compound 107, 1-[(4aR,6R,7aR)-7,7-difluoro-2-hydroxy-2-oxo-4,4a,6,7a-tetrahydrofuro[3,2-d][1,3,2]dioxaphosphinin-6-yl]-4-amino-pyrimidin-2-one]	10 to 100	< 1	–
10 to 100	10 to 100	1 to 10	10 to 100	10 to 100	10 to 100	COC(=O)[C@H](CC(C)C)NP(=O)(N[C@@H](CC(C)C)C(=O)OC)OC[C@H]1O[C@@H](n2ccc(N)nc2=O)C(F)(F)[C@@H]1O [Compound 109, Methyl (2S)-2-[[[(2R,3R,5R)-5-(4-amino-2-oxo-pyrimidin-1-yl)-4,4-difluoro-3-hydroxy-tetrahydrofuran-2-yl]methoxy-[[(1S)-1-methoxycarbonyl-3-methyl-butyl]amino]phosphoryl]amino]-4-methyl-pentanoate]	10 to 100	1 to 10	–
1 to 10	< 1	< 1	10 to 100	< 1	1 to 10	CCOC(=O)[C@H](CC(C)C)NP(=O)(O)OC[C@H]1O[C@@H](n2ccc(N)nc2=O)C(F)(F)[C@@H]1O [Compound 115, [(2R,3R,5R)-5-(4-amino-2-oxo-pyrimidin-1-yl)-4,4-difluoro-3-hydroxy-tetrahydrofuran-2-yl]methoxy-N-[(1S)-1-ethoxycarbonyl-3-methyl-butyl]phosphonamidic acid]	10 to 100	< 1	–
< 1	< 1	< 1	1 to 10	< 1	< 1	CC(C)(CO)C(=O)SCCOP(=O)(O)OC[C@H]1O[C@@H](n2ccc(N)nc2=O)C(F)(F)[C@@H]1O [Compound 118]	< 1	< 1	–
10 to 100	10 to 100	10 to 100	10 to 100	10 to 100	10 to 100	CC(C)OP(=O)(OC[C@H]1O[C@@H](n2ccc(N)nc2=O)C(F)(F)[C@@H]1O)OC(C)C [Compound 119]	10 to 100	10 to 100	–
–	–	–	–	–	–	Nc1ccn([C@@H]2O[C@H](CO)[C@@H](O)C2(F)F)c(=O)n1 [Gemcitabine, reference compound]	–	–	IC50 (HuH-1 cells; Homo sapiens, HuH-1, 72 h): < 0.3 µM

SMILES	IC50 (BxPC-3; BXPC-3, 72 h, 72 hr exposure) [µM]	IC50 (HCT-116; HCT-116, 72 h, 72 hr exposure) [µM]	IC50 (HepG2; HepG2, 72 h, 72 hr exposure) [µM]	IC50 (MDA-MB-231) [µM]	IC50 (MiaPACA-2; [1]) [µM]	IC50 (NCI-H69; NCI-H69, 72 h, 72 hr exposure) [µM]	IC50 (A498; A498, 72 h, 72 hr exposure) [µM]	IC50 (CFPAC-1; CFPAC-1, 72 h, 72 hr exposure) [µM]	also measured
Nc1ccn([C@@H]2O[C@H](COP(=O)(OCc3ccc([N+](=O)[O-])o3)OCc3ccc([N+](=O)[O-])o3)[C@@H](O)C2(F)F)c(=O)n1 [Compound 114, [(2R,3R,5R)-5-(4-amino-2-oxo-pyrimidin-1-yl)-4,4-difluoro-3-hydroxy-tetrahydrofuran-2-yl]methyl bis[(5-nitro-2-furyl)methyl] phosphate]	–	–	–	10 to 100	–	–	–	–	IC50 (A498; A498, 72 hr exposure): < 1 µM; IC50 (BxPC-3; BXPC-3, 72 hr exposure): < 1 µM; IC50 (CFPAC-1; CFPAC-1, 72 hr exposure): < 1 µM; IC50 (HCT-116; HCT-116, 72 hr exposure): 1 to 10 µM; IC50 (HepG2; HepG2, 72 hr exposure): < 1 µM; IC50 (MiaPACA-2; MIA PaCa-2, 72 hr exposure): < 1 µM; IC50 (NCI-H69; NCI-H69, 72 hr exposure): 10 to 100 µM
